Reference: patent publication US20240199649A1 (Biosplice Therapeutics, Inc., priority 2022, published 2024)

Biological target: recombinant DYRK1A kinase (Homo sapiens (Human), UniProt Q13627)
Assay: DYRK1A kinase assay (Ser/Thr 18 peptide Z-lyte FRET assay)
Format: biochemical
Details: DYRK1A 0.25 μg/mL, ATP 15 μM, Ser/Thr peptide 18 4 μM; one hour at room temperature; 11-point dose-response, duplicate
Method in brief: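 Z-lyte FRET assay on Ser/Thr 18 peptide, kinase activity read as coumarin/fluorescein emission ratio; compounds incubated 1 h at room temperature, then development reagent 1 h, in duplicate. Phosphorylated and unphosphorylated peptide served as controls; IC50 by non-linear regression of dose-response curves.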

Structure (SMILES)	IC50 [nM]
Cc1nc2ccc(-c3ccn4nc(N[C@@H]5CN(C6COC6)C[C@@H]5F)nc(N)c34)nc2n1CC(F)F [Compound 701, 5-(3-(2,2-Difluoroethyl)-2-methyl-3H-imidazo[4,5-b]pyridin-5-yl)-N^2-((3R,4S)-4-fluoro-1-(oxetan-3-yl)pyrrolidin-3-yl)pyrrolo[2,1-f][1,2,4]triazine-2,4-diamine]	1
Cc1nc2ccc(-c3ccn4nc(N[C@H]5CC[C@](C)(O)CC5)nc(N)c34)nc2n1CC(F)(F)F [Compound 754, (1r,4r)-4-((4-Amino-5-(2-methyl-3-(2,2,2-trifluoroethyl)-3H-imidazo[4,5-b]pyridin-5-yl)pyrrolo[2,1-f][1,2,4]triazin-2-yl)amino)-1-methylcyclohexan-1-ol]	0.5
CC(=O)N1C[C@H](F)[C@H](Nc2nc(N)c3c(-c4ccc5nc(C)n(CC(F)(F)F)c5n4)ccn3n2)C1 [Compound 762, 1-((3R,4S)-3-((4-Amino-5-(2-methyl-3-(2,2,2-trifluoroethyl)-3H-imidazo[4,5-b]pyridin-5-yl)pyrrolo[2,1-f][1,2,4]triazin-2-yl)amino)-4-fluoropyrrolidin-1-yl)ethan-1-one]	1.5
Cc1nc2ccc(-c3ccn4nc(N[C@@H]5CN(C6COC6)C[C@@H]5F)nc(N)c34)nc2n1CC(F)(F)F [Compound 763, N^2-((3R,4S)-4-Fluoro-1-(oxetan-3-yl)pyrrolidin-3-yl)-5-(2-methyl-3-(2,2,2-trifluoroethyl)-3H-imidazo[4,5-b]pyridin-5-yl)pyrrolo[2,1-f][1,2,4]triazine-2,4-diamine]	1.4
CC(=O)N1CC[C@H](Nc2nc(N)c3c(-c4ccc5nc(C)n(CC(F)(F)F)c5n4)ccn3n2)[C@H](F)C1 [Compound 777, 1-((3R,4S)-4-((4-Amino-5-(2-methyl-3-(2,2,2-trifluoroethyl)-3H-imidazo[4,5-b]pyridin-5-yl)pyrrolo[2,1-f][1,2,4]triazin-2-yl)amino)-3-fluoropiperidin-1-yl)ethan-1-one]	1.2
Cc1nc2ccc(-c3ccn4nc(N[C@H]5CCN(C6COC6)C[C@H]5F)nc(N)c34)nc2n1CC(F)(F)F [Compound 780, N^2-((3R,4S)-3-Fluoro-1-(oxetan-3-yl)piperidin-4-yl)-5-(2-methyl-3-(2,2,2-trifluoroethyl)-3H-imidazo[4,5-b]pyridin-5-yl)pyrrolo[2,1-f][1,2,4]triazine-2,4-diamine]	1.2
Cc1nc2ccc(-c3ccn4nc(N[C@@H]5CCN(C6COC6)CC5(F)F)nc(N)c34)nc2n1CC(F)(F)F [Compound 792, (R)—N^2-(3,3-Difluoro-1-(oxetan-3-yl)piperidin-4-yl)-5-(2-methyl-3-(2,2,2-trifluoroethyl)-3H-imidazo[4,5-b]pyridin-5-yl)pyrrolo[2,1-f][1,2,4]triazine-2,4-diamine]	4.8
C[C@]1(O)CC[C@H](Nc2nc(N)c3c(-c4ccc5nnn(CC(F)F)c5n4)ccn3n2)CC1 [Compound 816, (1r,4r)-4-((4-Amino-5-(3-(2,2-difluoroethyl)-3H-[1,2,3]triazolo[4,5-b]pyridin-5-yl)pyrrolo[2,1-f][1,2,4]triazin-2-yl)amino)-1-methylcyclohexan-1-ol]	1.3
Nc1nc(N[C@H]2CCN(C3COC3)C[C@H]2F)nn2ccc(-c3ccc4nnn(CC(F)F)c4n3)c12 [Compound 842, 5-(3-(2,2-Difluoroethyl)-3H-[1,2,3]triazolo[4,5-b]pyridin-5-yl)-N^2-((3R,4S)-3-fluoro-1-(oxetan-3-yl)piperidin-4-yl)pyrrolo[2,1-f][1,2,4]triazine-2,4-diamine]	1.5

Further lines, results first:

IC50 [nM]	Structure (SMILES)
6.4	Cc1nc2ccc(-c3ccn4nc(N[C@@H]5CCNCC5(F)F)nc(NC(C)C)c34)nc2n1CC(F)F [Compound 484, (R)-5-(3-(2,2-Difluoroethyl)-2-methyl-3H-imidazo[4,5-b]pyridin-5-yl)-N^2-(3,3-difluoropiperidin-4-yl)-N^4-isopropylpyrrolo[2,1-f][1,2,4]triazine-2,4-diamine]
7.3	Cc1nc2ccc(-c3ccn4nc(N[C@@H]5CCN(C)CC5(F)F)nc(NC(C)C)c34)nc2n1CC(F)F [Compound 485, (R)—N^2-(3,3-Difluoro-1-methylpiperidin-4-yl)-5-(3-(2,2-difluoroethyl)-2-methyl-3H-imidazo[4,5-b]pyridin-5-yl)-N^4-isopropylpyrrolo[2,1-f][1,2,4]triazine-2,4-diamine]
7830	Cc1nc2ccc(-c3ccn4nc(N[C@@H]5CCNCC5(F)F)nc(NC5COC5)c34)nc2n1CC(F)F [Compound 486, (R)-5-(3-(2,2-Difluoroethyl)-2-methyl-3H-imidazo[4,5-b]pyridin-5-yl)-N^2-(3,3-difluoropiperidin-4-yl)-N^4-(oxetan-3-yl)pyrrolo[2,1-f][1,2,4]triazine-2,4-diamine]
3.8	Cc1nc2ccc(-c3ccn4nc(N[C@@H]5CCN(C)CC5(F)F)nc(NC5COC5)c34)nc2n1CC(F)F [Compound 487, (R)—N2-(3,3-Difluoro-1-methylpiperidin-4-yl)-5-(3-(2,2-difluoroethyl)-2-methyl-3H-imidazo[4,5-b]pyridin-5-yl)-N4-(oxetan-3-yl)pyrrolo[2,1-f][1,2,4]triazine-2,4-diamine]
0.9	Cc1nc2ccc(-c3ccn4nc(N[C@H]5CC[C@](C)(O)CC5)nc(N)c34)nc2n1CC(F)F [Compound 692, (1r,4r)-4-((4-Amino-5-(3-(2,2-difluoroethyl)-2-methyl-3H-imidazo[4,5-b]pyridin-5-yl)pyrrolo[2,1-f][1,2,4]triazin-2-yl)amino)-1-methylcyclohexan-1-ol]
1	CC(=O)N1C[C@H](F)[C@H](Nc2nc(N)c3c(-c4ccc5nc(C)n(CC(F)F)c5n4)ccn3n2)C1 [Compound 700, 1-((3R,4S)-3-((4-Amino-5-(3-(2,2-difluoroethyl)-2-methyl-3H-imidazo[4,5-b]pyridin-5-yl)pyrrolo[2,1-f][1,2,4]triazin-2-yl)amino)-4-fluoropyrrolidin-1-yl)ethan-1-one]
0.4	CC(=O)N1CC[C@H](Nc2nc(N)c3c(-c4ccc5nc(C)n(CC(F)F)c5n4)ccn3n2)[C@H](F)C1 [Compound 715, 1-((3R,4S)-4-((4-Amino-5-(3-(2,2-difluoroethyl)-2-methyl-3H-imidazo[4,5-b]pyridin-5-yl)pyrrolo[2,1-f][1,2,4]triazin-2-yl)amino)-3-fluoropiperidin-1-yl)ethan-1-one]
0.4	CC(=O)N1CC[C@@H](Nc2nc(N)c3c(-c4ccc5nc(C)n(CC(F)F)c5n4)ccn3n2)C(F)(F)C1 [Compound 729, (R)-1-(4-((4-Amino-5-(3-(2,2-difluoroethyl)-2-methyl-3H-imidazo[4,5-b]pyridin-5-yl)pyrrolo[2,1-f][1,2,4]triazin-2-yl)amino)-3,3-difluoropiperidin-1-yl)ethan-1-one]
2.1	Cc1nc2ccc(-c3ccn4nc(N[C@@H]5CCN(C6COC6)CC5(F)F)nc(N)c34)nc2n1CC(F)F [Compound 730, (R)—N^2-(3,3-Difluoro-1-(oxetan-3-yl)piperidin-4-yl)-5-(3-(2,2-difluoroethyl)-2-methyl-3H-imidazo[4,5-b]pyridin-5-yl)pyrrolo[2,1-f][1,2,4]triazine-2,4-diamine]
0.6	CN1CC[C@@H](Nc2nc(N)c3c(-c4ccc5nnn(CC(F)F)c5n4)ccn3n2)C(F)(F)C1 [Compound 850, (R)—N^2-(3,3-Difluoro-1-methylpiperidin-4-yl)-5-(3-(2,2-difluoroethyl)-3H-[1,2,3]triazolo[4,5-b]pyridin-5-yl)pyrrolo[2,1-f][1,2,4]triazine-2,4-diamine]
